Values of other authors, collected in patent US20210220374A1, “METHODS OF TREATING TE[…]” (Clarus Therapeutics, Inc., priority 2013, published 2021).

Settings: cited from earlier work

Row | Compound | Liver toxicity (oral therapy) | Serum half-life of testosterone in men (in vivo) [min]
1 | C[C@]12CCC(=O)C=C1CC[C@@H]1[C@@H]2CC[C@@]2(C)[C@H]1CC[C@]2(C)O [methyltestosterone] | significant occurrence of liver toxicity | –
2 | C[C@]12CC[C@H]3[C@@H](CCC4=CC(=O)CC[C@@]43C)[C@@H]1CC[C@@H]2O [testosterone] | – | 10 to 100
